According to patent US20210009950A1, “ANGIOGENESIS-INDUCING METHOD USING NEURAL STEM CELL” (MEDINNO INC., priority 2018, published 2021):

Experiments:
[1] = tested on: Groα; type: cell-based, human
[2] = tested on: MCP-1; type: cell-based, human

[Cl-].[Cl-].[Co+2] [CoCl2]
amount of Groα at 24 hours after CoCl2 treatment [1]: increased in a concentration-dependent manner | amount of Groα at CoCl2 200 μM or more compared to 100 μM [1]: reduced | amount of Groα, another 24 hours after medium replaced with DMEM/F12 [1]: highest when 100 μM CoCl2 was treated | expression of Gro [1]: increased | CoCl2 concentration giving highest Groα at 24 hours after treatment ([1]; 24 hours): 500 µM | amount of MCP-1 at 24 hours after CoCl2 treatment [2]: increased in proportion to the concentration | amount of MCP-1 at CoCl2 300 μM or more compared to 100 and 200 μM [2]: reduced | expression level of MCP-1, another 24 hours after medium replaced with DMEM/F12 [2]: highest in the case of treatment of 100 μM CoCl2 | expression of MCP-1 [2]: increased
